# Experimental data: patent US10159726B2, “Peptides, combination of peptides and scaffolds for use in immunotherapeutic treatment of various cancers” (Immatics Biotechnologies GmbH, priority 2015, dated 2018)
# Test system: HLA-A*24
# Assay: MHC binding assay, UV-ligand exchange with beta2m ELISA, HLA-A*24
# Parameters: species or system human
# Settings: binding to HLA-A*24, UV-ligand exchange, β2m ELISA
# Excerpt: Candidate peptides for T cell based therapies according to the present invention were further tested for their MHC binding capacity (affinity). The individual peptide-MHC complexes were produced by UV-ligand exchange, where a UV-sensitive peptide is cleaved upon UV-irradiation, and exchanged with the peptide of interest as analyzed. Only peptide candidates that can effectively bind and stabilize the peptide-receptive MHC molecules prevent dissociation of the MHC complexes. To determine the yield of the exchange reaction, an ELISA was performed based on the detection of the light chain (β2m) of stabilized MHC complexes. The assay was performed as generally described in Rodenko et al. (Rodenko et al., 2006).
# 96 well MAXISorp plates (NUNC) were coated over night with 2 ug/ml streptavidin in PBS at room temperature, washed 4× and blocked for 1 h at 37° C. in 2% BSA containing blocking buffer. […] Peptide-MHC monomers of the UV-exchange reaction were diluted 100 fold in blocking buffer. Samples were incubated for 1 h at 37° C., washed four times, incubated with 2 ug/ml HRP conjugated anti-β2m for 1 h at 37° C., washed again and detected with TMB solution that is stopped with […]. Absorption was measured at 450 nm. Candidate peptides that show a high exchange yield (preferably higher than 50%, most preferred higher than 75%) are generally preferred for a generation and production of antibodies or fragments thereof, and/or T cell receptors or fragments thereof, as they show sufficient avidity to the MHC molecules and prevent dissociation of the MHC complexes.
row,Substance,"Peptide exchange (MHC class I binding score, peptide exchange yield)"
1,220 (SYSEIKDFL; listed as Homo sapiens) [compound 220],++++ (>=75% = ++++)
2,221 (KYIGNLDLL; listed as Homo sapiens) [compound 221],++++ (>=75% = ++++)
3,223 (TFITQSPLL; listed as Homo sapiens) [compound 223],++++ (>=75% = ++++)
4,231 (AFADVSVKF; listed as Homo sapiens) [compound 231],++++ (>=75% = ++++)
5,249 (RYHPTTCTI; listed as Homo sapiens) [compound 249],++++ (>=75% = ++++)
6,252 (AFGQETNVPLNNF; listed as Homo sapiens) [compound 252],++++ (>=75% = ++++)
7,262 (VYSSQFETI; listed as Homo sapiens) [compound 262],++++ (>=75% = ++++)
8,264 (LYTETRLQF; listed as Homo sapiens) [compound 264],++++ (>=75% = ++++)
9,271 (RFLMKSYSF; listed as Homo sapiens) [compound 271],++++ (>=75% = ++++)
10,274 (KQLDIANYELF; listed as Homo sapiens) [compound 274],++++ (>=75% = ++++)
11,280 (TYNPNLQDKL; listed as Homo sapiens) [compound 280],++++ (>=75% = ++++)
12,286 (SYGTILSHI; listed as Homo sapiens) [compound 286],++++ (>=75% = ++++)
13,290 (KYGDFKLLEF; listed as Homo sapiens) [compound 290],++++ (>=75% = ++++)
14,293 (VYPHFSTTNLI; listed as Homo sapiens) [compound 293],++++ (>=75% = ++++)
15,297 (TYIDTRTVF; listed as Homo sapiens) [compound 297],++++ (>=75% = ++++)
16,298 (AYKSEVVYF; listed as Homo sapiens) [compound 298],++++ (>=75% = ++++)
17,301 (KFDDVTMLF; listed as Homo sapiens) [compound 301],++++ (>=75% = ++++)

# Results, then the substance that gave them:
row,"Peptide exchange (MHC class I binding score, peptide exchange yield)",Substance
1,++++ (>=75% = ++++),248 (AFPTFSVQL; listed as Homo sapiens) [compound 248]
2,++++ (>=75% = ++++),260 (VYMNVMTRL; listed as Homo sapiens) [compound 260]
3,++++ (>=75% = ++++),261 (GYIKLINFI; listed as Homo sapiens) [compound 261]
4,++++ (>=75% = ++++),265 (SYLNEAFSF; listed as Homo sapiens) [compound 265]
5,++++ (>=75% = ++++),272 (RYVFPLPYL; listed as Homo sapiens) [compound 272]
6,++++ (>=75% = ++++),275 (KYGTLDVTF; listed as Homo sapiens) [compound 275]
7,++++ (>=75% = ++++),276 (QYLDVLHAL; listed as Homo sapiens) [compound 276]
8,++++ (>=75% = ++++),289 (FFHEGQYVF; listed as Homo sapiens) [compound 289]
9,++++ (>=75% = ++++),292 (FYPQIINTF; listed as Homo sapiens) [compound 292]
10,++++ (>=75% = ++++),296 (SYQVIFQHF; listed as Homo sapiens) [compound 296]
